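The compound was tested at five concentrations on cells cultured in 96-well plates, with a 48-hour exposure period. TGI denotes the concentration required for complete inhibition of growth.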
Legend:
Experiment in all cases: growth of human tumour cells (NCI), 48 h
UO-31 renal = tested on: UO-31 renal
HCC-2998 colon = tested on: HCC-2998 colon
U251 CNS = tested on: U251 CNS
NCI-H23 lung = tested on: NCI-H23 lung
SK-OV-3 ovarian = tested on: SK-OV-3 ovarian
HOP-62 NSCLC = tested on: HOP-62 NSCLC
SR leukemia = tested on: SR leukemia
HT29 colon = tested on: HT29 colon
NCI/ADR-RES ovarian = tested on: NCI/ADR-RES ovarian
T-47D breast = tested on: T-47D breast
HCT-15 colon = tested on: HCT-15 colon
EKVX NSCLC = tested on: EKVX NSCLC
SF-268 CNS = tested on: SF-268 CNS
IGROV1 ovarian = tested on: IGROV1 ovarian
SN12C renal = tested on: SN12C renal
HL-60(TB) leukemia = tested on: HL-60(TB) leukemia
A549 NSCLC = tested on: A549 NSCLC
NCI-H226 lung = tested on: NCI-H226 lung
COLO 205 colon = tested on: COLO 205 colon
CAKI-1 renal = tested on: CAKI-1 renal
SNB-75 CNS = tested on: SNB-75 CNS
NCI-H522 lung = tested on: NCI-H522 lung
SK-MEL-5 melanoma = tested on: SK-MEL-5 melanoma
RPMI-8226 leukemia = tested on: RPMI-8226 leukemia
NCI-H460 lung = tested on: NCI-H460 lung
SW-620 colon = tested on: SW-620 colon
UACC-62 melanoma = tested on: UACC-62 melanoma
K-562 leukemia = tested on: K-562 leukemia
MDA-MB-435 = tested on: MDA-MB-435
M14 melanoma = tested on: M14 melanoma
MDA-MB-231 breast = tested on: MDA-MB-231 breast
CCRF-CEM leukemia = tested on: CCRF-CEM leukemia
PC-3 prostate = tested on: PC-3 prostate
SK-MEL-28 melanoma = tested on: SK-MEL-28 melanoma
HS 578T breast = tested on: HS 578T breast
MOLT-4 leukemia = tested on: MOLT-4 leukemia
SF-295 CNS = tested on: SF-295 CNS
BT-549 breast = tested on: BT-549 breast
ACHN renal = tested on: ACHN renal
MDA-N = tested on: MDA-N
SF-539 CNS = tested on: SF-539 CNS
KM12 colon = tested on: KM12 colon
OVCAR-4 ovarian = tested on: OVCAR-4 ovarian
MCF7 breast = tested on: MCF7 breast
OVCAR-8 ovarian = tested on: OVCAR-8 ovarian
DU-145 prostate = tested on: DU-145 prostate
UACC-257 melanoma = tested on: UACC-257 melanoma
SNB-19 CNS = tested on: SNB-19 CNS
OVCAR-3 ovarian = tested on: OVCAR-3 ovarian
HCT-116 colon = tested on: HCT-116 colon
RXF 393 renal = tested on: RXF 393 renal
TK-10 renal = tested on: TK-10 renal
786-0 renal = tested on: 786-0 renal
MALME-3M melanoma = tested on: MALME-3M melanoma
HOP-92 NSCLC = tested on: HOP-92 NSCLC
LOX IMVI melanoma = tested on: LOX IMVI melanoma
OVCAR-5 ovarian = tested on: OVCAR-5 ovarian
A498 renal = tested on: A498 renal
SK-MEL-2 melanoma = tested on: SK-MEL-2 melanoma

`CN(C)c1ccc(/C=C2\Oc3ccccc3C2=O)cc1` showed a TGI (UO-31 renal) of over 100 µM, a TGI (HCC-2998 colon) of over 100 µM and a TGI (U251 CNS) of over 100 µM. It also gave a TGI (NCI-H23 lung) of over 100 µM, a TGI (SK-OV-3 ovarian) of over 100 µM and a TGI (HOP-62 NSCLC) of over 100 µM. For the same compound, the TGI (SR leukemia) was over 100 µM, the TGI (HT29 colon) was over 100 µM and the TGI (NCI/ADR-RES ovarian) was over 100 µM. The TGI (T-47D breast) was over 100 µM, the TGI (HCT-15 colon) was over 100 µM and the TGI (EKVX NSCLC) was over 100 µM. The TGI (SF-268 CNS) was over 100 µM, the TGI (IGROV1 ovarian) was over 100 µM and the TGI (SN12C renal) was over 100 µM. It also gave a TGI (HL-60(TB) leukemia) of over 100 µM, a TGI (A549 NSCLC) of over 100 µM and a TGI (NCI-H226 lung) of over 100 µM. The TGI (COLO 205 colon) was over 100 µM, the TGI (CAKI-1 renal) was over 100 µM and the TGI (SNB-75 CNS) was over 100 µM. It also gave a TGI (NCI-H522 lung) of over 100 µM, a TGI (SK-MEL-5 melanoma) of over 100 µM and a TGI (RPMI-8226 leukemia) of over 100 µM. The TGI (NCI-H460 lung) was over 100 µM, the TGI (SW-620 colon) was over 100 µM and the TGI (UACC-62 melanoma) was over 100 µM. The TGI (K-562 leukemia) was over 100 µM, the TGI (MDA-MB-435) was over 100 µM and the TGI (M14 melanoma) was over 100 µM. It also gave a TGI (MDA-MB-231 breast) of over 100 µM, a TGI (CCRF-CEM leukemia) of over 100 µM and a TGI (PC-3 prostate) of over 100 µM. It also gave a TGI (SK-MEL-28 melanoma) of over 100 µM, a TGI (HS 578T breast) of over 100 µM and a TGI (MOLT-4 leukemia) of over 100 µM. It also gave a TGI (SF-295 CNS) of over 100 µM, a TGI (BT-549 breast) of over 100 µM and a TGI (ACHN renal) of over 100 µM. For the same compound, the TGI (MDA-N) was over 100 µM, the TGI (SF-539 CNS) was over 100 µM and the TGI (KM12 colon) was over 100 µM. The TGI (OVCAR-4 ovarian) was over 100 µM, the TGI (MCF7 breast) was over 100 µM and the TGI (OVCAR-8 ovarian) was over 100 µM. It also gave a TGI (DU-145 prostate) of over 100 µM, a TGI (UACC-257 melanoma) of over 100 µM and a TGI (SNB-19 CNS) of over 100 µM. It also gave a TGI (OVCAR-3 ovarian) of over 100 µM, a TGI (HCT-116 colon) of over 100 µM and a TGI (RXF 393 renal) of over 100 µM. The TGI (TK-10 renal) was over 100 µM and the TGI (786-0 renal) was over 100 µM.
`CC(=O)NC1C(OCc2ccccc2)OC(CO)C(O)C1OCC(=O)N1CCCC1C(=O)N[C@@H](CCC(=O)NCCNCCNc1c2ccccc2nc2cccc([N+](=O)[O-])c12)C(N)=O` (stereo partly specified) was tested, and the TGI (UO-31 renal) was 14.8 µM, the TGI (HCC-2998 colon) was 8.46 µM and the TGI (U251 CNS) was 12.4 µM. It also gave a TGI (NCI-H23 lung) of 10.6 µM, a TGI (SK-OV-3 ovarian) of 83.3 µM and a TGI (HOP-62 NSCLC) of 11.7 µM. The TGI (HT29 colon) was 9.02 µM, the TGI (NCI/ADR-RES ovarian) was 33.5 µM and the TGI (T-47D breast) was 93.6 µM. It also gave a TGI (HCT-15 colon) of 11.8 µM, a TGI (EKVX NSCLC) of 26.6 µM and a TGI (SF-268 CNS) of 25.1 µM. For the same compound, the TGI (MALME-3M melanoma) was 7.35 µM, the TGI (IGROV1 ovarian) was 14.5 µM and the TGI (SN12C renal) was 10.6 µM. The TGI (HL-60(TB) leukemia) was over 39.5 µM, the TGI (A549 NSCLC) was 9.83 µM and the TGI (NCI-H226 lung) was 33.8 µM. For the same compound, the TGI (COLO 205 colon) was 4.97 µM, the TGI (HOP-92 NSCLC) was 5.61 µM and the TGI (CAKI-1 renal) was 16.5 µM. It also gave a TGI (SNB-75 CNS) of 24.8 µM, a TGI (NCI-H522 lung) of 3.96 µM and a TGI (SK-MEL-5 melanoma) of 3.38 µM. The TGI (RPMI-8226 leukemia) was 3.29 µM, the TGI (NCI-H460 lung) was 6.63 µM and the TGI (SW-620 colon) was 24.5 µM. For the same compound, the TGI (UACC-62 melanoma) was 15.5 µM, the TGI (LOX IMVI melanoma) was 20.1 µM and the TGI (K-562 leukemia) was over 100 µM. The TGI (MDA-MB-435) was 5.63 µM, the TGI (M14 melanoma) was 6.4 µM and the TGI (MDA-MB-231 breast) was 9.03 µM. The TGI (CCRF-CEM leukemia) was 6.22 µM, the TGI (PC-3 prostate) was 13.7 µM and the TGI (SK-MEL-28 melanoma) was 18.2 µM. The TGI (HS 578T breast) was 23.2 µM, the TGI (MOLT-4 leukemia) was over 100 µM and the TGI (OVCAR-5 ovarian) was 23.1 µM. For the same compound, the TGI (SF-295 CNS) was 28.6 µM, the TGI (BT-549 breast) was 18.9 µM and the TGI (A498 renal) was 9.21 µM. For the same compound, the TGI (ACHN renal) was 15.3 µM, the TGI (MDA-N) was 6.17 µM and the TGI (SF-539 CNS) was 10.4 µM. It also gave a TGI (KM12 colon) of 15.6 µM, a TGI (OVCAR-4 ovarian) of 14.1 µM and a TGI (MCF7 breast) of 19.9 µM. It also gave a TGI (OVCAR-8 ovarian) of 15.4 µM, a TGI (SK-MEL-2 melanoma) of 10.8 µM and a TGI (DU-145 prostate) of over 21.2 µM. It also gave a TGI (UACC-257 melanoma) of 15.6 µM, a TGI (SNB-19 CNS) of 26.1 µM and a TGI (OVCAR-3 ovarian) of 20.4 µM. For the same compound, the TGI (HCT-116 colon) was 5.26 µM, the TGI (RXF 393 renal) was 6.58 µM and the TGI (TK-10 renal) was 21.4 µM. The TGI (786-0 renal) was 9.17 µM.
